Source: US8026252B2 (priority 2005, dated 2011)

test system: guinea pig μ receptors; assay: not given; conditions: background, U.S. Pat. No. 6,784,187; cited from earlier work

| Compound | affinity for μ opioid receptors |
| --- | --- |
| C[C@H]1C2Cc3ccc(C(N)=O)cc3[C@@]1(C)CCN2CC1CC1 [Example 8-CAC, 8-carboxamidocyclazocine] | high affinity |

target: T1, human μ opioid receptor (Homo sapiens, UniProt P35372); assay: biochemical; format: binding; conditions: [3H]DAMGO (μ)
T1 construct: expressed in transfected cells
T1 sequence (P35372 whole entry): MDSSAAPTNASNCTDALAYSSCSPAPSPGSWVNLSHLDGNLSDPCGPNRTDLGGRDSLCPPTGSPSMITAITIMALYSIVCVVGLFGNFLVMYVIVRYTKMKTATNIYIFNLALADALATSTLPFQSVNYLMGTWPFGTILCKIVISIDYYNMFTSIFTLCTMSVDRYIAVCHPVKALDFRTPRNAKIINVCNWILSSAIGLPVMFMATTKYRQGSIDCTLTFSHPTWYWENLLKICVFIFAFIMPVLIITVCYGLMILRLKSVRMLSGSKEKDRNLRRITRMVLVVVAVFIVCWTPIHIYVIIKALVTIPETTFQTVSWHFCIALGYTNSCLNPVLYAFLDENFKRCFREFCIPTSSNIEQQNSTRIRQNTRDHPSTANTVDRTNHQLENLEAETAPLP

| Compound | Ki [nM] |
| --- | --- |
| CC[C@@]12CCN(CC3CC3)C(C(=O)c3ccc(C(=O)NCCc4ccc(-c5ccccc5)cc4)cc31)[C@@H]2C (mixture of isomers) [Example 21, (±)-3-(Cyclopropylmethyl)-6-ethyl-1,2,3,4,5,6-hexaahydro-cis-11-methyl-N-(2-[1,1′-biphenyl]-4-ylethyl)-1-oxo-2,6-methano-3-benzazocine-8-carboxamide] | 4.9 ± 0.2 |
| CC1C2Cc3ccc(C(=O)NCCCCCc4ccccc4)cc3C1(C)CCN2CC1CC1 (racemic) [Example 61] | 1.7 ± 0.15 |
| CC1C2Cc3ccc(C(=O)NCCc4cccnc4)cc3C1(C)CCN2CC1CC1 (racemic) [Example 69] | 120 ± 3.6 |
| CC(NC(=O)c1ccc2c(c1)C1(C)CCN(CC3CC3)C(C2)C1C)c1ccccc1 (single isomer, unassigned) [Example 67] | 28 ± 1.4 |
| CC(NC(=O)c1ccc2c(c1)C1(C)CCN(CC3CC3)C(C2)C1C)c1ccccc1 (single isomer, unassigned) [Example 68] | 62 ± 3.3 |
| O=C(NCCc1ccc(-c2ccccc2)cc1)c1ccc2c3c1OC1C(=O)CCC4(O)C(C2)N(CC2CC2)CCC314 (single isomer, unassigned; (-)) [Example 71, (−)-Q-naltrexone] | 1.4 ± 0.12 |
| CC1C2C(=O)c3ccc(C(=O)NCCc4ccc(-c5ccccc5)cc4)cc3C1(C)CCN2CC1CC1 (stereo not drawn) [Example 20] | 3.1 ± 1.3 |
| CC(CNC(=O)c1ccc2c(c1)[C@@]1(C)CCN(CC3CC3)C(C2)[C@@H]1C)c1ccc(-c2ccccc2)cc1 (stereo partly drawn) [Example 46] | 18 ± 1.1 |
| C[C@H]1C2Cc3ccc(C(=O)NCCc4ccc(-c5cccc(Cl)c5)cc4)cc3[C@@]1(C)CCN2CC1CC1 [Example 50] | 0.56 ± 0.087 |
| C[C@H]1C2Cc3ccc(C(=O)NCCc4ccc(C(=O)NCCc5ccc(Br)cc5)cc4)cc3[C@@]1(C)CCN2CC1CC1 [Example 53] | 1.5 ± 0.18 |
| C[C@H]1C2Cc3ccc(C(=O)NCCCCc4ccccc4)cc3[C@@]1(C)CCN2CC1CC1 [Example 60] | 4.3 ± 0.42 |
| O=C(NCCc1ccc(-c2ccccc2)cc1)c1ccc2c(c1)[C@@]13CCCC[C@@]1(O)[C@@H](C2)N(CC1CCC1)CC3 [Example 79, (−)-Q-butorphanol] | 0.32 ± 0.048 |
| O=C1CC[C@@]2(O)[C@H]3Cc4ccc(C(=O)NCCc5ccc(-c6ccccc6)cc5)c(O)c4[C@@]2(CCN3CC2CC2)C1 [Example 81, Q-naltrexone ring opened] | 0.71 ± 0.091 |

same assay, conditions: read-out: [3H]DAMGO (μ)

| Compound | Ki [nM] |
| --- | --- |
| CC1[C@@H]2Cc3ccc(C(=O)NCCc4ccccc4)cc3[C@@]1(C)CCN2CC1CC1 (mixture of isomers) [Example 11, (±)-3-(Cyclopropylmethyl)-1,2,3,4,5,6-hexahydro-cis-6,11-dimethyl-N-(2-phenylethyl)-2,6-methano-3-benzazocine-8-carboxamide] | 3.5 ± 0.27 |
| CC1[C@@H]2Cc3ccc(C(=O)NCCCc4ccccc4)cc3[C@@]1(C)CCN2CC1CC1 (mixture of isomers) [Example 12, (±)-3-(Cyclopropylmethyl)-1,2,3,4,5,6-hexahydro-cis-6,11-dimethyl-N-(3-phenylpropyl)-2,6-methano-3-benzazocine-8-carboxamide] | 2.5 ± 0.27 |
| CC1[C@@H]2Cc3ccc(C(=O)NCCc4cccc(-c5ccccc5)c4)cc3[C@@]1(C)CCN2CC1CC1 (mixture of isomers) [Example 25, (±)-3-(Cyclopropylmethyl)-1,2,3,4,5,6-hexahydro-cis-6,11-dimethyl-N-(2-(biphenyl-3-yl)ethyl)-2,6-methano-3-benzazocine-8-carboxamide] | 0.95 ± 0.15 |
| CC1[C@@H]2Cc3ccc(C(=O)NCCc4ccccc4-c4ccccc4)cc3[C@@]1(C)CCN2CC1CC1 (mixture of isomers) [Example 26, (±)-3-(Cyclopropylmethyl)-1,2,3,4,5,6-hexahydro-cis-6,11-dimethyl-N-(2-(biphenyl-2-yl)ethyl)-2,6-methano-3-benzazocine-8-carboxamide] | 6.7 ± 0.49 |
| CC1[C@@H]2Cc3ccc(C(=O)NCCc4ccc(Cc5ccccc5)cc4)cc3[C@@]1(C)CCN2CC1CC1 (mixture of isomers) [Example 27, (±)-3-(Cyclopropylmethyl)-1,2,3,4,5,6-hexahydro-cis-6,11-dimethyl-N-(4-benzylphenethyl)-2,6-methano-3-benzazocine-8-carboxamide] | 0.23 ± 0.032 |
| CC1[C@@H]2Cc3ccc(C(=O)NCCc4ccc(Br)cc4)cc3[C@@]1(C)CCN2CC1CC1 (mixture of isomers) [Example 29, (±)-3-(Cyclopropylmethyl)-1,2,3,4,5,6-hexahydro-cis-6,11-dimethyl-N-(4-bromophenethyl)-2,6-methano-3-benzazocine-8-carboxamide] | 2.4 ± 0.33 |
| CC1[C@@H]2Cc3ccc(C(=O)NCCc4cccc(Br)c4)cc3[C@@]1(C)CCN2CC1CC1 (mixture of isomers) [Example 30, (±)-3-(Cyclopropylmethyl)-1,2,3,4,5,6-hexahydro-cis-6,11-dimethyl-N-(3-bromophenethyl)-2,6-methano-3-benzazocine-8-carboxamide] | 0.35 ± 0.021 |
| CC1[C@@H]2Cc3ccc(C(=O)NCCc4ccc(Oc5ccccc5)cc4)cc3[C@@]1(C)CCN2CC1CC1 (mixture of isomers) [Example 33, (±)-3-(Cyclopropylmethyl)-1,2,3,4,5,6-hexahydro-cis-6,11-dimethyl-N-(4-phenoxyphenethyl)-2,6-methano-3-benzazocine-8-carboxamide] | 0.059 ± 0.017 |
| CC1[C@@H]2Cc3ccc(C(=O)NCCc4cccc(Oc5ccccc5)c4)cc3[C@@]1(C)CCN2CC1CC1 (mixture of isomers) [Example 34, (±)-3-(Cyclopropylmethyl)-1,2,3,4,5,6-hexahydro-cis-6,11-dimethyl-N-(3-phenoxyphenethyl)-2,6-methano-3-benzazocine-8-carboxamide] | 0.54 ± 0.16 |
| CC1[C@@H]2Cc3ccc(C(=O)NCCc4ccccc4Oc4ccccc4)cc3[C@@]1(C)CCN2CC1CC1 (mixture of isomers) [Example 35, (±)-3-(Cyclopropylmethyl)-1,2,3,4,5,6-hexahydro-cis-6,11-dimethyl-N-(2-phenoxyphenethyl)-2,6-methano-3-benzazocine-8-carboxamide] | 0.63 ± 0.09 |
| CC1[C@@H]2Cc3ccc(C(=O)NCCc4ccc5ccccc5c4)cc3[C@@]1(C)CCN2CC1CC1 (mixture of isomers) [Example 37, (±)-3-(Cyclopropylmethyl)-1,2,3,4,5,6-hexahydro-cis-6,11-dimethyl-N-(2-(naphthalen-2-yl)ethyl)-2,6-methano-3-benzazocine-8-carboxamide] | 0.18 ± 0.009 |
| CC1[C@@H]2Cc3ccc(C(=O)NCCCc4ccc5ccccc5c4)cc3[C@@]1(C)CCN2CC1CC1 (mixture of isomers) [Example 38, (±)-3-(Cyclopropylmethyl)-1,2,3,4,5,6-hexahydro-cis-6,11-dimethyl-N-(3-(naphthalen-2-yl)propyl)-2,6-methano-3-benzazocine-8-carboxamide] | 1.9 ± 0.19 |
| CC1[C@@H]2Cc3ccc(C(=O)NCCc4cccc5ccccc45)cc3[C@@]1(C)CCN2CC1CC1 (mixture of isomers) [Example 40, (±)-3-(Cyclopropylmethyl)-1,2,3,4,5,6-hexahydro-cis-6,11-dimethyl-N-(2-(naphthalen-1-yl)ethyl)-2,6-methano-3-benzazocine-8-carboxamide] | 4.2 ± 0.13 |
| CC1[C@@H]2Cc3ccc(C(=O)NCCCc4ccc5ccccc5c4)cc3[C@@]1(C)CCN2CC1CC1 (mixture of isomers) [Example 41, (±)-3-(Cyclopropylmethyl)-1,2,3,4,5,6-hexahydro-cis-6,11-dimethyl-N-(3-(naphthalen-2-yl)propyl)-2,6-methano-3-benzazocine-8-carboxamide] | 2.4 ± 0.45 |
| CC1[C@@H]2Cc3ccc(C(=O)NCCc4ccccc4Br)cc3[C@@]1(C)CCN2CC1CC1 (mixture of isomers) [Example 52, (±)-3-(Cyclopropylmethyl)-1,2,3,4,5,6-hexahydro-cis-6,11-dimethyl-N-(2-bromophenethyl)-2,6-methano-3-benzazocine-8-carboxamide] | 4 ± 0.36 |
| COc1ccc(-c2ccc(CCNC(=O)c3ccc4c(c3)[C@@]3(C)CCN(CC5CC5)C(C4)[C@@H]3C)cc2)cc1 [Example 48] | 0.084 ± 0.012 |
| C[C@H]1C2Cc3ccc(C(=O)NCCc4ccc(-c5ccc(Cl)cc5)cc4)cc3[C@@]1(C)CCN2CC1CC1 [Example 49] | 0.2 ± 0.038 |
| Cc1ccc(-c2ccc(CCNC(=O)c3ccc4c(c3)[C@@]3(C)CCN(CC5CC5)C(C4)[C@@H]3C)cc2)cc1 [Example 51] | 0.29 ± 0.075 |

test system: mice; assay: not given; conditions: 1 mg/kg ip in mice; cited from earlier work

| Compound | duration of action [h] |
| --- | --- |
| C[C@H]1C2Cc3ccc(C(N)=O)cc3[C@@]1(C)CCN2CC1CC1 [Example 8-CAC, 8-carboxamidocyclazocine] | 15 |
| C[C@H]1[C@H]2Cc3ccc(O)cc3[C@]1(C)CCN2CC1CC1 [cyclazocine] | 2 |

same assay, conditions: background; cited from earlier work

| Compound | antinociception activity in vivo |
| --- | --- |
| C[C@H]1C2Cc3ccc(C(N)=O)cc3[C@@]1(C)CCN2CC1CC1 [Example 8-CAC, 8-carboxamidocyclazocine] | high antinociception activity |

test system: κ opioid receptors; assay: not given; conditions: background, U.S. Pat. No. 6,784,187; cited from earlier work

| Compound | affinity for κ opioid receptors |
| --- | --- |
| C[C@H]1C2Cc3ccc(C(N)=O)cc3[C@@]1(C)CCN2CC1CC1 [Example 8-CAC, 8-carboxamidocyclazocine] | high affinity |
